Measurements reported in ChEMBL document CHEMBL1671854, “ramR mutations involved in efflux-mediated multidrug resistance in Salmonella enterica serovar Typhimurium” (2008).
≈ marks a conversion by molar mass, not a printed value.

Experiments:
Type in all cases: functional, Salmonella enterica subsp. enterica serovar Typhimurium
Salmonella typhimurium [1] = experiment: Antimicrobial activity against Salmonella enterica serovar Typhimurium BN18 by agar doubling dilution method
Salmonella typhimurium [2] = experiment: Antimicrobial activity against marR::kan-deficient Salmonella enterica serovar Typhimurium S/921495 by agar doubling dilution method
Salmonella typhimurium [3] = experiment: Antimicrobial activity against ramR-deficient Salmonella enterica serovar Typhimurium S/921495 by agar doubling dilution method
Salmonella typhimurium [4] = experiment: Antimicrobial activity against ramA::kan-deficient Salmonella enterica serovar Typhimurium 543SA98 harboring GyrA S83Y mutant gene by agar doubling dilution method
Salmonella typhimurium [5] = experiment: Antimicrobial activity against Salmonella enterica serovar Typhimurium S/921495 by agar doubling dilution method
Salmonella typhimurium [6] = experiment: Antimicrobial activity against Salmonella enterica serovar Typhimurium BN18/41 harboring GyrA G81C,acrR mutant genes by agar doubling dilution method
Salmonella typhimurium [7] = experiment: Antimicrobial activity against multidrug-resistant Salmonella enterica serovar Typhimurium 102SA00 harboring GyrA S83A and D87N, GyrB S464F and ParC S80I mutant genes by agar doubling dilution method
Salmonella typhimurium [8] = experiment: Antimicrobial activity against ramA::kan-deficient Salmonella enterica serovar Typhimurium 102SA00 harboring GyrA S83A and D87N, GyrB S464F and ParC S80I mutant genes by agar doubling dilution method
Salmonella typhimurium [9] = experiment: Antimicrobial activity against Salmonella enterica serovar Typhimurium BN18/71 harboring plasmid encoded RamR gene, GyrA G81C,acrR mutant genes by agar doubling dilution method
Salmonella typhimurium [10] = experiment: Antimicrobial activity against soxR::kan-deficient Salmonella enterica serovar Typhimurium S/921495 by agar doubling dilution method
Salmonella typhimurium [11] = experiment: Antimicrobial activity against ramA::kan-deficient Salmonella enterica serovar Typhimurium 902SA92 harboring GyrA S83A and D87N, GyrB S464F and ParC S80I mutant genes by agar doubling dilution method
Salmonella typhimurium [12] = experiment: Antimicrobial activity against multidrug-resistant Salmonella enterica serovar Typhimurium 902SA92 harboring plasmid encoded RamR gene, GyrA S83A and D87N, GyrB S464F and ParC S80I mutant genes by agar doubling dilution method
Salmonella typhimurium [13] = experiment: Antimicrobial activity against multidrug-resistant Salmonella enterica serovar Typhimurium BN9945 harboring plasmid encoded RamR gene by agar doubling dilution method
Salmonella typhimurium [14] = experiment: Antimicrobial activity against ramA::kan-deficient Salmonella enterica serovar Typhimurium BN9181 by agar doubling dilution method
Salmonella typhimurium [15] = experiment: Antimicrobial activity against soxS::kan-deficient Salmonella enterica serovar Typhimurium S/921495 by agar doubling dilution method
Salmonella typhimurium [16] = experiment: Antimicrobial activity against ramA::kan-deficient Salmonella enterica serovar Typhimurium BN18/41 harboring plasmid encoded RamR gene, GyrA G81C,acrR mutant genes by agar doubling dilution method
Salmonella typhimurium [17] = experiment: Antimicrobial activity against ramA::kan-deficient Salmonella enterica serovar Typhimurium S/921495 by agar doubling dilution method
Salmonella typhimurium [18] = experiment: Antimicrobial activity against multidrug-resistant Salmonella enterica serovar Typhimurium 902SA92 harboring GyrA S83A and D87N, GyrB S464F and ParC S80I mutant genes by agar doubling dilution method
Salmonella typhimurium [19] = experiment: Antimicrobial activity against multidrug-resistant Salmonella enterica serovar Typhimurium BN9181 harboring plasmid encoded RamR gene by agar doubling dilution method
Salmonella typhimurium [20] = experiment: Antimicrobial activity against multidrug-resistant Salmonella enterica serovar Typhimurium BN9945 by agar doubling dilution method
Salmonella typhimurium [21] = experiment: Antimicrobial activity against marR-deficient Salmonella enterica serovar Typhimurium S/921495 by agar doubling dilution method
Salmonella typhimurium [22] = experiment: Antimicrobial activity against Salmonella enterica serovar Typhimurium BN18/71 harboring GyrA G81C, acrR mutant genes by agar doubling dilution method
Salmonella typhimurium [23] = experiment: Antimicrobial activity against multidrug-resistant Salmonella enterica serovar Typhimurium BN10055 harboring GyrA S83Y mutant gene by agar doubling dilution method
Salmonella typhimurium [24] = experiment: Antimicrobial activity against Salmonella enterica serovar Typhimurium BN18 harboring plasmid encoded RamR gene by agar doubling dilution method
Salmonella typhimurium [25] = experiment: Antimicrobial activity against ramR::kan-deficient Salmonella enterica serovar Typhimurium S/921495 by agar doubling dilution method
Salmonella typhimurium [26] = experiment: Antimicrobial activity against multidrug-resistant Salmonella enterica serovar Typhimurium 102SA00 harboring plasmid encoded RamR gene, GyrA S83A and D87N, GyrB S464F and ParC S80I mutant genes by agar doubling dilution method
Salmonella typhimurium [27] = experiment: Antimicrobial activity against multidrug-resistant Salmonella enterica serovar Typhimurium 543SA98 harboring GyrA […] mutant gene by agar doubling dilution method
Salmonella typhimurium [28] = experiment: Antimicrobial activity against ramA::kan-deficient Salmonella enterica serovar Typhimurium BN10055 harboring GyrA S83Y mutant gene by agar doubling dilution method
Salmonella typhimurium [29] = experiment: Antimicrobial activity against ramA::kan-deficient Salmonella enterica serovar Typhimurium BN18/71 harboring plasmid encoded RamR gene, GyrA G81C,acrR mutant genes by agar doubling dilution method
Salmonella typhimurium [30] = experiment: Antimicrobial activity against marA::kan-deficient Salmonella enterica serovar Typhimurium S/921495 by agar doubling dilution method
Salmonella typhimurium [31] = experiment: Antimicrobial activity against multidrug-resistant Salmonella enterica serovar Typhimurium BN10055 harboring plasmid encoded RamR gene, GyrA S83Y mutant gene by agar doubling dilution method
Salmonella typhimurium [32] = experiment: Antimicrobial activity against Salmonella enterica serovar Typhimurium BN18/41 harboring plasmid encoded RamR gene, GyrA G81C,acrR mutant genes by agar doubling dilution method
Salmonella typhimurium [33] = experiment: Antimicrobial activity against ramA::kan-deficient Salmonella enterica serovar Typhimurium BN18 by agar doubling dilution method
Salmonella typhimurium [34] = experiment: Antimicrobial activity against ramR-deficient Salmonella enterica serovar Typhimurium S/921495 harboring plasmid encoded RamR gene by agar doubling dilution method
Salmonella typhimurium [35] = experiment: Antimicrobial activity against Salmonella enterica serovar Typhimurium BN18/21 harboring plasmid encoded RamR gene by agar doubling dilution method
Salmonella typhimurium [36] = experiment: Antimicrobial activity against multidrug-resistant Salmonella enterica serovar Typhimurium BN9181 by agar doubling dilution method
Salmonella typhimurium [37] = experiment: Antimicrobial activity against multidrug-resistant Salmonella enterica serovar Typhimurium 543SA98 harboring plasmid encoded RamR gene, GyrA S83Y mutant gene by agar doubling dilution method
Salmonella typhimurium [38] = experiment: Antimicrobial activity against Salmonella enterica serovar Typhimurium BN18/21 by agar doubling dilution method
Salmonella typhimurium [39] = experiment: Antimicrobial activity against ramA::kan-deficient Salmonella enterica serovar Typhimurium BN18/21 by agar doubling dilution method
Salmonella typhimurium [40] = experiment: Antimicrobial activity against ramA::kan-deficient Salmonella enterica serovar Typhimurium BN9945 by agar doubling dilution method
Salmonella typhimurium [41] = experiment: Antimicrobial activity against Salmonella enterica serovar Typhimurium S/921495 harboring plasmid encoded RamR gene by agar doubling dilution method

CS(=O)(=O)c1ccc([C@@H](O)[C@@H](CF)NC(=O)C(Cl)Cl)cc1 [FLORFENICOL]
MIC (Salmonella typhimurium [1]): 4 µg/mL (≈ 11.2 µM) | MIC (Salmonella typhimurium [2]): 4 µg/mL (≈ 11.2 µM) | MIC (Salmonella typhimurium [3]): 16 µg/mL (≈ 44.7 µM) | MIC (Salmonella typhimurium [4]): 128 µg/mL (≈ 357 µM) | MIC (Salmonella typhimurium [5]): 4 µg/mL (≈ 11.2 µM) | MIC (Salmonella typhimurium [6]): 64 µg/mL (≈ 179 µM) | MIC (Salmonella typhimurium [7]): 16 µg/mL (≈ 44.7 µM) | MIC (Salmonella typhimurium [8]): 4 µg/mL (≈ 11.2 µM) | MIC (Salmonella typhimurium [9]): 8 µg/mL (≈ 22.3 µM) | MIC (Salmonella typhimurium [10]): 4 µg/mL (≈ 11.2 µM) | MIC (Salmonella typhimurium [11]): 4 µg/mL (≈ 11.2 µM) | MIC (Salmonella typhimurium [12]): 4 µg/mL (≈ 11.2 µM) | MIC (Salmonella typhimurium [13]): 64 µg/mL (≈ 179 µM) | MIC (Salmonella typhimurium [14]): 32 µg/mL (≈ 89.3 µM) | MIC (Salmonella typhimurium [15]): 4 µg/mL (≈ 11.2 µM) | MIC (Salmonella typhimurium [16]): 8 µg/mL (≈ 22.3 µM) | MIC (Salmonella typhimurium [17]): 4 µg/mL (≈ 11.2 µM) | MIC (Salmonella typhimurium [18]): 16 µg/mL (≈ 44.7 µM) | MIC (Salmonella typhimurium [19]): 32 µg/mL (≈ 89.3 µM) | MIC (Salmonella typhimurium [20]): 128 µg/mL (≈ 357 µM) | MIC (Salmonella typhimurium [21]): 4 µg/mL (≈ 11.2 µM) | MIC (Salmonella typhimurium [22]): 64 µg/mL (≈ 179 µM) | MIC (Salmonella typhimurium [23]): 128 µg/mL (≈ 357 µM) | MIC (Salmonella typhimurium [24]): 4 µg/mL (≈ 11.2 µM) | MIC (Salmonella typhimurium [25]): 16 µg/mL (≈ 44.7 µM) | MIC (Salmonella typhimurium [26]): 4 µg/mL (≈ 11.2 µM) | MIC (Salmonella typhimurium [27]): 512 µg/mL (≈ 1430 µM) | MIC (Salmonella typhimurium [28]): 32 µg/mL (≈ 89.3 µM) | MIC (Salmonella typhimurium [29]): 8 µg/mL (≈ 22.3 µM) | MIC (Salmonella typhimurium [30]): 4 µg/mL (≈ 11.2 µM) | MIC (Salmonella typhimurium [31]): 128 µg/mL (≈ 357 µM) | MIC (Salmonella typhimurium [32]): 8 µg/mL (≈ 22.3 µM) | MIC (Salmonella typhimurium [33]): 2 µg/mL (≈ 5.58 µM) | MIC (Salmonella typhimurium [34]): 4 µg/mL (≈ 11.2 µM) | MIC (Salmonella typhimurium [35]): 4 µg/mL (≈ 11.2 µM) | MIC (Salmonella typhimurium [36]): 32 µg/mL (≈ 89.3 µM) | MIC (Salmonella typhimurium [37]): 128 µg/mL (≈ 357 µM) | MIC (Salmonella typhimurium [38]): 16 µg/mL (≈ 44.7 µM) | MIC (Salmonella typhimurium [39]): 4 µg/mL (≈ 11.2 µM) | MIC (Salmonella typhimurium [40]): 64 µg/mL (≈ 179 µM) | MIC (Salmonella typhimurium [41]): 4 µg/mL (≈ 11.2 µM)

CC1CCc2cc(F)cc3c(=O)c(C(=O)O)cn1c23 (configuration not stated) [FLUMEQUINE]
MIC (Salmonella typhimurium [1]): 0.5 µg/mL (≈ 1.91 µM) | MIC (Salmonella typhimurium [2]): 0.5 µg/mL (≈ 1.91 µM) | MIC (Salmonella typhimurium [3]): 2 µg/mL (≈ 7.66 µM) | MIC (Salmonella typhimurium [4]): 8 µg/mL (≈ 30.6 µM) | MIC (Salmonella typhimurium [5]): 0.5 µg/mL (≈ 1.91 µM) | MIC (Salmonella typhimurium [6]): 256 µg/mL (≈ 980 µM) | MIC (Salmonella typhimurium [7]): 2050 µg/mL (≈ 7840 µM) | MIC (Salmonella typhimurium [8]): 512 µg/mL (≈ 1960 µM) | MIC (Salmonella typhimurium [9]): 256 µg/mL (≈ 980 µM) | MIC (Salmonella typhimurium [10]): 0.5 µg/mL (≈ 1.91 µM) | MIC (Salmonella typhimurium [11]): 512 µg/mL (≈ 1960 µM) | MIC (Salmonella typhimurium [12]): 512 µg/mL (≈ 1960 µM) | MIC (Salmonella typhimurium [13]): 8 µg/mL (≈ 30.6 µM) | MIC (Salmonella typhimurium [14]): 0.5 µg/mL (≈ 1.91 µM) | MIC (Salmonella typhimurium [15]): 0.5 µg/mL (≈ 1.91 µM) | MIC (Salmonella typhimurium [16]): 64 µg/mL (≈ 245 µM) | MIC (Salmonella typhimurium [17]): 0.5 µg/mL (≈ 1.91 µM) | MIC (Salmonella typhimurium [18]): 2050 µg/mL (≈ 7840 µM) | MIC (Salmonella typhimurium [19]): 0.5 µg/mL (≈ 1.91 µM) | MIC (Salmonella typhimurium [20]): 32 µg/mL (≈ 122 µM) | MIC (Salmonella typhimurium [21]): 0.5 µg/mL (≈ 1.91 µM) | MIC (Salmonella typhimurium [22]): 512 µg/mL (≈ 1960 µM) | MIC (Salmonella typhimurium [23]): 64 µg/mL (≈ 245 µM) | MIC (Salmonella typhimurium [24]): 0.5 µg/mL (≈ 1.91 µM) | MIC (Salmonella typhimurium [25]): 2 µg/mL (≈ 7.66 µM) | MIC (Salmonella typhimurium [26]): 512 µg/mL (≈ 1960 µM) | MIC (Salmonella typhimurium [27]): 32 µg/mL (≈ 122 µM) | MIC (Salmonella typhimurium [28]): 16 µg/mL (≈ 61.2 µM) | MIC (Salmonella typhimurium [29]): 256 µg/mL (≈ 980 µM) | MIC (Salmonella typhimurium [30]): 0.5 µg/mL (≈ 1.91 µM) | MIC (Salmonella typhimurium [31]): 64 µg/mL (≈ 245 µM) | MIC (Salmonella typhimurium [32]): 64 µg/mL (≈ 245 µM) | MIC (Salmonella typhimurium [33]): 0.5 µg/mL (≈ 1.91 µM) | MIC (Salmonella typhimurium [34]): 0.5 µg/mL (≈ 1.91 µM) | MIC (Salmonella typhimurium [35]): 2 µg/mL (≈ 7.66 µM) | MIC (Salmonella typhimurium [36]): 0.5 µg/mL (≈ 1.91 µM) | MIC (Salmonella typhimurium [37]): 8 µg/mL (≈ 30.6 µM) | MIC (Salmonella typhimurium [38]): 8 µg/mL (≈ 30.6 µM) | MIC (Salmonella typhimurium [39]): 2 µg/mL (≈ 7.66 µM) | MIC (Salmonella typhimurium [40]): 8 µg/mL (≈ 30.6 µM) | MIC (Salmonella typhimurium [41]): 0.5 µg/mL (≈ 1.91 µM)
